Laboratory results as given in ChEMBL document CHEMBL5316341, “The Development and Design Strategy of Leucine-Rich Repeat Kinase 2 Inhibitors: Promising Therapeutic Agents for Parkinson's Disease” (J Med Chem, 2023).
pEC50, pIC50: −log10 of the molar value.

Assays:
[1] = biological target: Protein cereblon/Leucine-rich repeat serine/threonine-protein kinase 2 (Homo sapiens, UniProt Q5S007+Q96SW2, G2019S); test: PROTAC activity at CRBN/HiBit tagged-LRRK2 G2019S mutant in HEK293 cells assessed as LRRK2 degradation by Nano-Glo dual-luciferase reporter assay; assay type: cell-based
[2] = system: Protein cereblon/Leucine-rich repeat serine/threonine-protein kinase 2 (Homo sapiens), Q5S007+Q96SW2 [G2019S]; test: PROTAC activity at CRBN/LRRK2 G2019S mutant in HEK293 cells assessed as LRRK2 degradation by measuring maximum degradation by Nano-Glo dual-luciferase reporter assay relative to control; assay type: cell-based
[3] = biological target: T1, Protein cereblon/Leucine-rich repeat serine/threonine-protein kinase 2 (Homo sapiens, UniProt Q5S007+Q96SW2); test: PROTAC activity at CRBN/wild type HiBit tagged-LRRK in HEK293 cells assessed as LRRK2 degradation by Nano-Glo dual-luciferase reporter assay; assay type: cell-based
[4] = biological target: T1, Protein cereblon/Leucine-rich repeat serine/threonine-protein kinase 2; test: PROTAC activity at CRBN/wild type HiBit tagged-LRRK2 in HEK293 cells assessed as LRRK2 degradation by measuring maximum degradation by Nano-Glo dual-luciferase reporter assay relative to control; assay type: cell-based
[5] = biological target: T2, von Hippel-Lindau disease tumor suppressor/Leucine-rich repeat serine/threonine-protein kinase 2 (Mus musculus, UniProt P40338+Q5S006, R1441C); test: PROTAC activity at VHL/LRRK2 R1441C mutant in mouse bone marrow derived macrophages assessed as induction of LRRK2 degradation; assay type: cell-based, BMDM
[6] = Oral bioavailability in mouse; assay type: ADME, organism-based; conditions: in vivo
[7] = biological target: T2, von Hippel-Lindau disease tumor suppressor/Leucine-rich repeat serine/threonine-protein kinase 2; test: PROTAC activity at VHL/LRRK2 R1441C mutant in mouse embryonic fibroblast cells assessed as induction of LRRK2 degradation; assay type: cell-based, MEF
[8] = system: von Hippel-Lindau disease tumor suppressor/Leucine-rich repeat serine/threonine-protein kinase 2 (Mus musculus), Q5S006+P40338 [R1441C]; test: PROTAC activity at VHL/LRRK2 R1441C mutant in mouse bone marrow derived macrophages assessed as induction of LRRK2 degradation by measuring half-life; assay type: cell-based; conditions: BMDM
[9] = system: von Hippel-Lindau disease tumor suppressor/Leucine-rich repeat serine/threonine-protein kinase 2 (Mus musculus), Q5S006+P40338 [R1441C]; test: PROTAC activity at VHL/LRRK2 R1441C mutant in mouse PBMC cells assessed as induction of LRRK2 degradation by measuring half-life; assay type: cell-based
[10] = system: von Hippel-Lindau disease tumor suppressor/Leucine-rich repeat serine/threonine-protein kinase 2 (Mus musculus), Q5S006+P40338 [R1441C]; test: PROTAC activity at VHL/LRRK2 R1441C mutant in mouse bone marrow derived macrophages assessed as induction of LRRK2 degradation by measuring maximal efficacy relative to control; assay type: cell-based; conditions: BMDM
[11] = system: von Hippel-Lindau disease tumor suppressor/Leucine-rich repeat serine/threonine-protein kinase 2 (Mus musculus), Q5S006+P40338 [R1441C]; test: PROTAC activity at VHL/LRRK2 R1441C mutant in mouse embryonic fibroblast cells assessed as induction of LRRK2 degradation by measuring half-life; assay type: cell-based; conditions: MEF
[12] = system: von Hippel-Lindau disease tumor suppressor/Leucine-rich repeat serine/threonine-protein kinase 2 (Mus musculus), Q5S006+P40338 [R1441C]; test: PROTAC activity at VHL/LRRK2 R1441C mutant in mouse embryonic fibroblast cells assessed as induction of LRRK2 degradation by measuring maximal efficacy relative to control; assay type: cell-based; conditions: MEF
[13] = system: von Hippel-Lindau disease tumor suppressor/Leucine-rich repeat serine/threonine-protein kinase 2 (Mus musculus), Q5S006+P40338 [R1441C]; test: PROTAC activity at VHL/LRRK2 R1441C mutant in mouse PBMC cells assessed as induction of LRRK2 degradation by measuring maximal efficacy relative to control; assay type: cell-based
[14] = biological target: T2, von Hippel-Lindau disease tumor suppressor/Leucine-rich repeat serine/threonine-protein kinase 2; test: PROTAC activity at VHL/LRRK2 R1441C mutant in mouse PBMC cells assessed as induction of LRRK2 degradation; assay type: cell-based
[15] = biological target: Leucine-rich repeat serine/threonine-protein kinase 2 (Homo sapiens, UniProt Q5S007); test: Inhibition of wild-type LRRK2 (unknown origin) by adapta assay
[16] = biological target: Leucine-rich repeat serine/threonine-protein kinase 2 (Homo sapiens, UniProt Q5S007, G2019S); test: Inhibition of LRRK2 G2019S mutant (unknown origin) by adapta assay

T2 sequence (P40338 whole entry, stated change not applied): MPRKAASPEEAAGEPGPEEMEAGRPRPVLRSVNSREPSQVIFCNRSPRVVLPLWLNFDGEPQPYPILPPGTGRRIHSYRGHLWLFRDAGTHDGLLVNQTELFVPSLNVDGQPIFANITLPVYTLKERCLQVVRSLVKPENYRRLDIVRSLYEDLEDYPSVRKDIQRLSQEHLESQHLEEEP
T2 sequence (Q5S006 whole entry R1441C, stated change not applied): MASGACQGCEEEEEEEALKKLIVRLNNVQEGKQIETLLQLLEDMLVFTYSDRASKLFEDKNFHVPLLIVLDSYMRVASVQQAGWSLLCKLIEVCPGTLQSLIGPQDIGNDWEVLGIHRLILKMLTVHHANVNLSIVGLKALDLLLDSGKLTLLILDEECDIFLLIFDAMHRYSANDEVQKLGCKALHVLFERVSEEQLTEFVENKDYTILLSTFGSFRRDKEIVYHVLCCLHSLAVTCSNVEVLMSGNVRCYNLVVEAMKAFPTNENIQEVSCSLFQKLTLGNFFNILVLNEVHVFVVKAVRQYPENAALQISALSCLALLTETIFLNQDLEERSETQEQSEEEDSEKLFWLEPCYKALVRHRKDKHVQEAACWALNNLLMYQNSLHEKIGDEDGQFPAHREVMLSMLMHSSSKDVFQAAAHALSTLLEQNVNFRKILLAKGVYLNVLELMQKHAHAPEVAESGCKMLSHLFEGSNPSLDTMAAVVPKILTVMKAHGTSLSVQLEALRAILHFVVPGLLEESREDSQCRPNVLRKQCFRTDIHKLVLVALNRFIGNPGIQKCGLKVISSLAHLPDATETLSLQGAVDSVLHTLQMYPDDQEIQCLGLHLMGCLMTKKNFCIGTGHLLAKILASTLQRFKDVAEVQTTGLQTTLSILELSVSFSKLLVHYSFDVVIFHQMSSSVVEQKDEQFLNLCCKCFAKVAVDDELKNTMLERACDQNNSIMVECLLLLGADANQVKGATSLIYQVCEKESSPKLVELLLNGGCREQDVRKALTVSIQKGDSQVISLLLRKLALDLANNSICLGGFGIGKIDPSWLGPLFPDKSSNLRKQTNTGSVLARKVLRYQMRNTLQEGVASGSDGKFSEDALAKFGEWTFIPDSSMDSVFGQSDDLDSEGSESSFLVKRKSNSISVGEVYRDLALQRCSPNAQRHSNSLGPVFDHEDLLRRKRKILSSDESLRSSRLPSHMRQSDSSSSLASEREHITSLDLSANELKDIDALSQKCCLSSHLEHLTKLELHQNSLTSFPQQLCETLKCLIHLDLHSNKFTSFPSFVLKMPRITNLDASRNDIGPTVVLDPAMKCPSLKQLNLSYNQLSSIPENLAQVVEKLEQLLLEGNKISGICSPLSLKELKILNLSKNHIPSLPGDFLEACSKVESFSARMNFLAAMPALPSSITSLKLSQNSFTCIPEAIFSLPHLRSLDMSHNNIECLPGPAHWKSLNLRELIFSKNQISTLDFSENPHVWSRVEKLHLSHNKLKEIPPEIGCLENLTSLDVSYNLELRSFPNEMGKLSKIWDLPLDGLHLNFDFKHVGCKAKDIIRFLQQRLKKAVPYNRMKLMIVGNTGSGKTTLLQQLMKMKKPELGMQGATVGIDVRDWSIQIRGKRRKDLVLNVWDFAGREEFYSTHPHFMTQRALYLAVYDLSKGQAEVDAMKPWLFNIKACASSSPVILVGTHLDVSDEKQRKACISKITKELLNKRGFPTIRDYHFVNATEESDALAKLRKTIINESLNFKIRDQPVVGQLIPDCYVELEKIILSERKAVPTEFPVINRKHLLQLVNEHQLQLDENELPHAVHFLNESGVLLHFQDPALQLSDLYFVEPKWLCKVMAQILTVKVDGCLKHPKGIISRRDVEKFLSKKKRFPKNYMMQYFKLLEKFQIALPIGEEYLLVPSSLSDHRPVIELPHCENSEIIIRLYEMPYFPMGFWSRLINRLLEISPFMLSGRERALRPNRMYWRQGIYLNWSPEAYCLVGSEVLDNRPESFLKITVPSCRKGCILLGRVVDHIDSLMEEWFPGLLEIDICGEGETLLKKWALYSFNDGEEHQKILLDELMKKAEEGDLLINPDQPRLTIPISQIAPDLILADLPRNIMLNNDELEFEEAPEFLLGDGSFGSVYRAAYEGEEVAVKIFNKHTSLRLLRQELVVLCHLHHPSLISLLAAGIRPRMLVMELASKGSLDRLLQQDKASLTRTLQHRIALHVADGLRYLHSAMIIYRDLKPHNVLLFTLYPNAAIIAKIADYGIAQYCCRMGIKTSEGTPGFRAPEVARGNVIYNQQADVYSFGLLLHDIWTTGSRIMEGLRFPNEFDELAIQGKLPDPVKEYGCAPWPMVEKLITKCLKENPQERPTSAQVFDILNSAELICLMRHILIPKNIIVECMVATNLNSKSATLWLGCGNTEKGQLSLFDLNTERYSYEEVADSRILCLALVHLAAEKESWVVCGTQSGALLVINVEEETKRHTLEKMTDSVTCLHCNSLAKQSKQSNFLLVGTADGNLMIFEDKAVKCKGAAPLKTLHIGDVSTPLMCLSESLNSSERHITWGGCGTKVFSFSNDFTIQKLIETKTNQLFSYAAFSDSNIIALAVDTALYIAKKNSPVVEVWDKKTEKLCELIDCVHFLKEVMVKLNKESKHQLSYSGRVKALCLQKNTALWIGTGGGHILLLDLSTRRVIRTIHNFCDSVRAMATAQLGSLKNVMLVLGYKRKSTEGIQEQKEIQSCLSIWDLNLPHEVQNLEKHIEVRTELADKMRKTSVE

Q: With `C[C@H]1CN(c2cc(-c3n[nH]c4ccc(OC5(C)CC5)cc34)ccn2)CCN1CCOCCOCCOCCOc1ccc2c(c1)C(=O)N(C1CCC(=O)NC1=O)C2=O` (stereo partly specified) as the compound, how does the pEC50 [1] read?
A: Its pEC50 is over 8.00.

Q: And the Emax [2]?
A: Its Emax is over 70%.

Q: What about the pEC50 [3] of the same compound?
A: The pEC50 was over 8.00.

Q: What about the Emax [4] of the same compound?
A: The Emax was over 70%.

Q: With `CNc1nc(Nc2ccc(C(=O)N3CCN(C[C@H]4CC[C@H](CSC(C)(C)[C@H](NC(=O)C5(F)CC5)C(=O)N5C[C@@H](O)C[C@@H]5C(=O)NCc5ccc(-c6scnc6C)cc5)CC4)CC3)cc2OC)ncc1Cl` as the compound, how does the pEC50 [5] read?
A: The pEC50 was 7.82.

Q: What about the bioavailability [6] of the same compound?
A: Its bioavailability is 15%.

Q: What about the pEC50 [7] of the same compound?
A: Its pEC50 is 7.82.

Q: And the T1/2 [8]?
A: The T1/2 was 36 min.

Q: What about the T1/2 [9] of the same compound?
A: Its T1/2 is 36 min.

Q: And the Emax [10]?
A: Its Emax is 82%.

Q: What about the T1/2 [11] of the same compound?
A: Its T1/2 is 36 min.

Q: And the Emax [12]?
A: The Emax was 82%.

Q: And the Emax [13]?
A: The Emax was 82%.

Q: What about the pEC50 [14] of the same compound?
A: The pEC50 was 7.82.

Q: With `CC1(Oc2ccc3[nH]nc(-c4cc(N5CCN(CCOCCOCCOCCOc6ccc7c(c6)C(=O)N(C6CCC(=O)NC6=O)C7=O)CC5)ncn4)c3c2)CC1` (stereo unspecified) as the compound, how does the pIC50 [15] read?
A: The pIC50 was 8.84.

Q: And the pIC50 [16]?
A: Its pIC50 is 9.01.
